Among the data in BindingDB's records for doi:10.7270/Q2TX3CTT (Broad Institute, 2010) are EC50 values, retold here.

For orientation: EC50 means the concentration that produces a half-maximal response. The low end stands for an effect from little substance, the high end for a need for much substance.

Structures are written as SMILES.

The target of the assay is Glycogen synthase kinase-3 beta (Homo sapiens, UniProt P49841). As to the kind of experiment: GSK3beta kinase inhibitor potency, dose response, biochemical, luminescence, cell-free homogeneous, retest (AID 434954).
Sequence of Glycogen synthase kinase-3 beta (P49841 whole entry): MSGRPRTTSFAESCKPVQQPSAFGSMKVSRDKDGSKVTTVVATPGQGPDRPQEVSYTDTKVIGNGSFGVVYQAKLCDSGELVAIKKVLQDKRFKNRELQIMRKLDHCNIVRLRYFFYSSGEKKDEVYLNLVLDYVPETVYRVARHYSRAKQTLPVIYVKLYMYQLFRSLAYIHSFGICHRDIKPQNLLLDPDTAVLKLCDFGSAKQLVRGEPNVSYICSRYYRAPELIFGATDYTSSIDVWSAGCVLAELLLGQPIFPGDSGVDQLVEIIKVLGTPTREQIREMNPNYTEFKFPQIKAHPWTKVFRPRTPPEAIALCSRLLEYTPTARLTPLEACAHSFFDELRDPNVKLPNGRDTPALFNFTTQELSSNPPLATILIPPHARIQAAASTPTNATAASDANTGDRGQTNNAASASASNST
In the case of `Cc1ccc(C(=O)c2coc3ccc(OCC(=O)O)cc23)cc1` [2-[[3-[(4-methylphenyl)-oxomethyl]-5-benzofuranyl]oxy]acetic acid], the response was half-maximal at 3.66 µM (EC50). In other words, the single-digit micromolar range.
In turn, `COc1ccc(C(=O)c2ccsc2N)cc1` [MLS001166080] came in with an EC50 greater than 300 µM.
`C=CCn1cc(/C=C/c2cc[n+](C)cc2)c2ccccc21` [3-[(E)-2-(1-methylpyridin-1-ium-4-yl)ethenyl]-1-prop-2-enyl-indole;iodide] yielded an EC50 greater than 300 µM.
`CC[n+]1c(/C=C/N(C)c2ccccc2)sc2ccc(Cl)cc21` [N-[(E)-2-(5-chloro-3-ethyl-1,3-benzothiazol-3-ium-2-yl)ethenyl]-N-methylaniline;perchlorate] showed an EC50 of 49.8 µM.
For the compound `CC(C)CCNc1nc(N)c([N+](=O)[O-])c(NC2CCCCC2)n1`, the EC50 was greater than 300 µM.
To `CC1=C(C#N)C(=O)NC(=O)C1=CNc1ccc(S(=O)(=O)N(C)C)cc1` belongs greater than 300 µM; to `CC(C)(C)C1CCc2onc(C(=O)Nc3ccc4c(c3)OCO4)c2C1` (stereo not given) [N-(1,3-benzodioxol-5-yl)-5-tert-butyl-4,5,6,7-tetrahydro-1,2-benzoxazole-3-carboxamide], greater than 300 µM.
`O=S(=O)(NCCC1CC1(Cl)Cl)c1ccc(Cl)cc1` (stereo not given) [N1-[2-(2,2-dichlorocyclopropyl)ethyl]-4-chlorobenzene-1-sulfonamide] returned an EC50 greater than 300 µM.
In the case of `CC1(C)CC(=O)C=C(Nc2ccc(F)cc2)C1` [MLS000070279] it was greater than 300 µM; in that of `O=NCc1ccc(Sc2ccccc2)c([N+](=O)[O-])c1` [N-[(3-nitro-4-phenylsulfanylphenyl)methylidene]hydroxylamine], 39.3 µM.
In turn, `Cc1nonc1-c1nnc(-c2nonc2N)[nH]1` [SMR000040798] had an EC50 of 29.7 µM.
Compound `CCN1CCN(c2cc(C)c3cc(NC(=O)c4cccc(OC)c4)ccc3n2)CC1` [N-[2-(4-ethylpiperazin-1-yl)-4-methyl-quinolin-6-yl]-3-methoxy-benzamide] came in with an EC50 greater than 300 µM.
Compound `CC1=Nc2nnnn2C(c2sccc2C)C1C(N)=O` (stereo not given) [MLS000528936] returned an EC50 greater than 300 µM.
In turn, `Cc1cccc(C(=O)Nc2ccc(O)c3c(=O)cc(-c4ccccc4Cl)oc23)c1` had an EC50 greater than 300 µM.
As to `CCCCC(=O)Nc1ncc(Br)s1` [MLS000066333], it took 4.13 µM to reach a half-maximal effect (EC50).
In turn, `CCc1cc(C(=O)c2ccc(OC)cc2)c(NC(=O)CN2CCN(C)CC2)s1` [N-[5-ethyl-3-(4-methoxyphenyl)carbonyl-thiophen-2-yl]-2-(4-methylpiperazin-1-yl)ethanamide] registered an EC50 greater than 300 µM.
To `O=C(O)CCn1cc(/C=C\C(=O)c2ccc(Cl)cc2)c(-c2cccc(Br)c2)n1` [3-[3-(3-bromophenyl)-4-[(Z)-3-(4-chlorophenyl)-3-oxoprop-1-enyl]pyrazol-1-yl]propanoic acid] belongs greater than 300 µM; to `Fc1ccc(CSc2nnc(-c3ccncc3)o2)cc1`, greater than 300 µM; to `CCn1nc(NC(=O)C2CCCO2)c2cc3cccc(C)c3nc21` (stereo not given) [Tetrahydro-furan-2-carboxylic acid (1-ethyl-8-methyl-1H-pyrazolo[3,4-b]quinolin-3-yl)-amide], greater than 300 µM.
In the case of `O=C(Nc1cccc(Cl)c1)Nc1ccnc(-c2cccnc2)n1` [SMR000337179] it was greater than 300 µM.
Regarding `CCCN(CCC)CCCNc1ccc2nnc(-c3ccc(F)cc3)n2n1` [N-[3-(4-fluorophenyl)-[1,2,4]triazolo[4,3-b]pyridazin-6-yl]-N',N'-dipropyl-propane-1,3-diamine], the EC50 is 11.3 µM.
The compound `CN1CCc2c(sc3c2c(=O)n(-c2ccccc2)c2nnc(SCc4ccc(Cl)cc4)n32)C1` [SMR000045323] came in with an EC50 greater than 300 µM.
`CCOC(=O)c1sc(=S)n(-c2ccccc2OC)c1N`: the EC50 is greater than 300 µM.
Regarding `Cc1cccc2cc3c(NC(=O)C(C)(C)C)nn(CC(C)C)c3nc12`, the EC50 is greater than 300 µM.
As for `O=C(OCCCOC(=O)c1cc[n+]([O-])cc1)c1cc[n+]([O-])cc1`, the EC50 was greater than 300 µM.
In the case of `Cc1c(O)ccc2c(-c3ccccc3)cc(=O)oc12` [7-hydroxy-8-methyl-4-phenyl-1-benzopyran-2-one], the EC50 was greater than 300 µM.
In the case of `COc1cccc(N(C(=O)C[S+]([O-])CC(=O)Nc2ccc(F)cc2)C(C(=O)NC2CCCCC2)c2cccs2)c1` (stereo not given) [MLS000566826] it was greater than 300 µM; in that of `Cc1ccc(OCCN(C)C(=O)C2CCC(=O)N(CCCN3CCOCC3)C2)cc1` (stereo not given), greater than 300 µM.
On to `Cc1cc(=O)[nH]c(N=NCc2ccc(-c3ccc([N+](=O)[O-])cc3)o2)n1` [SMR000589712], for which the EC50 is greater than 300 µM.
In turn, `CN(Cc1nc2c(s1)CCCC2)C(=O)CCc1nnc(-c2ccc3c(c2)OCO3)o1` [SMR000318717] registered an EC50 of 50 µM.
Take `S=c1[nH]c(-c2ccccc2)cn1N=Cc1ccncc1`: it took 140 µM to reach a half-maximal effect (EC50).
`CCOC(=O)N1CCC(NC(=O)c2cc3sccc3n2CC)CC1` [MLS000093129] showed an EC50 greater than 300 µM.
Compound `CN(C)CC(=O)N1c2ccccc2Sc2ccc(Cl)cc21` registered an EC50 greater than 300 µM.
`CC1CCCCN1c1ncnc(N)c1[N+](=O)[O-]` (stereo not given) [6-(2-methylpiperidin-1-yl)-5-nitro-pyrimidin-4-amine] had an EC50 of 8.18 µM.
As for `CCn1c(SCC(=O)Nc2ccccc2Cl)nnc1C1CC1` [N-(2-chlorophenyl)-2-[(5-cyclopropyl-4-ethyl-1,2,4-triazol-3-yl)sulfanyl]ethanamide], the EC50 was greater than 300 µM.
As for `O=C(c1ccccc1)c1ccc(NCCCn2ccnc2)c([N+](=O)[O-])c1` [SMR000588423], the EC50 is 6.85 µM.
On to `COc1ccc(Cl)cc1NC(=O)CS(=O)(=O)c1cccc2nsnc12` [2-(2,1,3-benzothiadiazol-4-ylsulfonyl)-N-(5-chloranyl-2-methoxy-phenyl)ethanamide], for which the EC50 was greater than 300 µM.
On to `CCCn1nc(NC(=O)C2CCCO2)c2cc3ccc(C)cc3nc21` (stereo not given) [N-(7-methyl-1-propyl-pyrazolo[3,4-b]quinolin-3-yl)oxolane-2-carboxamide], for which the EC50 was greater than 300 µM.
On to `Cc1cc(CNC(=O)C(C)n2cc([N+](=O)[O-])cn2)c2ccccc2n1` (stereo not given) [SMR000307388], for which the EC50 is greater than 300 µM.
`Fc1ccc(CSc2nnc(-c3cccnc3)o2)cc1` [2-[(4-fluorophenyl)methylthio]-5-(3-pyridinyl)-1,3,4-oxadiazole] had an EC50 greater than 300 µM.
Compound `CCOC(=O)c1sc(NC(=O)CCN2C(=O)c3cccc([N+](=O)[O-])c3C2=O)c(C(=O)OCC)c1C` [3-methyl-5-[[3-(4-nitro-1,3-dioxo-2-isoindolyl)-1-oxopropyl]amino]thiophene-2,4-dicarboxylic acid diethyl ester] had an EC50 greater than 300 µM.
As for `COC(=O)CSc1ccc2nnc(-c3ccc(F)cc3)n2n1` [methyl 2-[[3-(4-fluorophenyl)-[1,2,4]triazolo[4,3-b]pyridazin-6-yl]sulfanyl]ethanoate], the response was half-maximal at 9.3 µM (EC50).
In turn, `Cc1ccc(OCC(=O)N/N=C/c2ccc(O)cc2)c([N+](=O)[O-])c1` [2-(4-methyl-2-nitro-phenoxy)-N'-[(4-oxidanylidenecyclohexa-2,5-dien-1-ylidene)methyl]ethanehydrazide] gave an EC50 of 7.18 µM.
`CSc1nc(SCC(=O)NC(c2ccccc2)c2ccccc2)c2c3c(sc2n1)CN(C)CC3` registered an EC50 greater than 300 µM.
In turn, `CNc1nc(N)c([N+](=O)[O-])c(Nc2cccc(Cl)c2)n1` [SMR000434546] gave an EC50 of 11.7 µM.
